This assay has as its system Staphylococcus aureus. Briefly: Antibacterial activity against methicillin-resistant Staphylococcus aureus assessed as bacterial killing at 16 ug/ml by serial dilution method after 24 hrs. It is filed as functional.

Each structure is given as a SMILES string.

For `CN[C@H](CC(C)C)C(=O)N[C@H]1C(=O)N[C@@H](CC(N)=O)C(=O)N[C@H]2C(=O)N[C@H]3C(=O)N[C@H](C(=O)N[C@H](C(=O)O)c4cc(O)cc(O)c4-c4cc3ccc4O)[C@H](O)c3ccc(c(Cl)c3)Oc3cc2cc(c3O[C@@H]2O[C@H](CO)[C@@H](O)[C@H](O)[C@H]2O[C@H]2C[C@](C)(N)[C@H](O)[C@H](C)O2)Oc2ccc(cc2Cl)[C@H]1O` [VANCOMYCIN], the log10CFU/ml amounted to 0.82.

The values above are taken from ChEMBL document CHEMBL1150799, “Vancomycin in vitro bactericidal activity and its relationship to efficacy in clearance of methicillin-resistant Staphylococcus aureus bacteremia” (2007).
